Values quoted from earlier work as cited in paper PMC7904743, “WIDOCK: a reactive docking protocol for virtual screening of covalent inhibitors” (Journal of Computer-Aided Molecular Design, 2021).
Where two headings read alike, the source gives them in different places.

Experiments:
[1] = system: OTUB2; details: OTUB2 protein labeling; experimental actives if % labeling higher than 50%; cited from earlier work
[2] = system: NUDT7; details: protein labeling at 200 μM; experimental actives if % labeling higher than 50%; cited from earlier work
[3] = thiol reactivity, cited from earlier work
[4] = natural log of average kinetic rate constant
[5] = natural log of average rate constant

SMILES	OTUB2 % labeling [1]	NUDT7 % labeling [2]	ln(avg k) [3, 4]	ln(avg k) [3, 5]
O=C(CCl)N1CCOCC1 [PCM-0102749, O=C(CCl)N1CCOCC1]	0%	0%	-17.466	-17.466
CC1CN(c2ccc(NC(=O)CCl)cc2)CC(C)O1 (centres unmarked) [PCM-0102750, CC1CN(c2ccc(NC(=O)CCl)cc2)CC(C)O1]	24%	0%	-15.710	-15.710
O=C(CCl)N1CCCCCC1 [PCM-0102751, O=C(CCl)N1CCCCCC1]	0%	0%	-16.327	-16.327
O=C(CCl)NC(=O)NCc1cccs1 [PCM-0102753, O=C(CCl)NC(=O)NCc1cccs1]	23%	0%	-15.984	-15.984
CC(NC(=O)CCl)C(=O)N(C)C (centres unmarked) [PCM-0102754, CC(NC(=O)CCl)C(=O)N(C)C]	0%	0%	-16.933	-16.933
O=C(CCl)N(c1ccccc1)C1CCS(=O)(=O)C1 (centres unmarked) [PCM-0102755, O=C(CCl)N(c1ccccc1)C1CCS(=O)(=O)C1]	0%	17%	-15.253	-15.253
CN(CC1COc2ccccc2O1)C(=O)CCl (centres unmarked) [PCM-0102756, CN(CC1COc2ccccc2O1)C(=O)CCl]	6%	16%	-15.581	-15.581
NC(=O)c1ccccc1NC(=O)CCl [PCM-0102758, NC(=O)c1ccccc1NC(=O)CCl]	0%	0%	-15.095	-15.095
Cc1ccc(S(=O)(=O)N2CCN(C(=O)CCl)CC2)cc1 [PCM-0102759, Cc1ccc(S(=O)(=O)N2CCN(C(=O)CCl)CC2)cc1]	0%	12%	-15.424	-15.424
O=C(CCl)N(C1CCCCC1)C1CCS(=O)(=O)C1 (centres unmarked) [PCM-0102760, O=C(CCl)N(C1CCCCC1)C1CCS(=O)(=O)C1]	0%	8%	-15.274	-15.274
O=C(CCl)Nc1cc(Cl)ccc1F [PCM-0102762, O=C(CCl)Nc1cc(Cl)ccc1F]	13%	0%	-15.818	-15.818
COc1ccc(Cl)cc1C(=O)NNC(=O)CCl [PCM-0102763, COc1ccc(Cl)cc1C(=O)NNC(=O)CCl]	64%	10%	-16.746	-16.746
COC(=O)c1ccc(Cl)c(NC(=O)CCl)c1 [PCM-0102764, COC(=O)c1ccc(Cl)c(NC(=O)CCl)c1]	29%	7%	-16.022	-16.022
CSc1ccc(NC(=O)CCl)cc1 [PCM-0102772, CSc1ccc(NC(=O)CCl)cc1]	28%	13%	-15.893	-15.893
CC(C)(C)C(NC(=O)CCl)c1cccs1 (centres unmarked) [PCM-0102773, CC(C)(C)C(NC(=O)CCl)c1cccs1]	0%	9%	-16.457	-16.457
Cc1ccc(-c2nnc(C)[nH]2)c(NC(=O)CCl)c1 [PCM-0102775, Cc1ccc(-c2nnc(C)[nH]2)c(NC(=O)CCl)c1]	0%	13%	-16.632	-16.632

SMILES	OTUB2 % labeling [1]	NUDT7 % labeling [2]	ln(avg k) [3, 4]	ln(avg k) [3, 5]
O=C(CCl)NNC(=O)C1CC1 [PCM-0102776, O=C(CCl)NNC(=O)C1CC1]	23%	0%	-17.370	-17.370
Cc1noc(C)c1CNC(=O)CCl [PCM-0102780, Cc1noc(C)c1CNC(=O)CCl]	0%	11%	-16.766	-16.766
O=C(CCl)N1CCC(C(=O)N2CCCCCC2)CC1 [PCM-0102781, O=C(CCl)N1CCC(C(=O)N2CCCCCC2)CC1]	0%	0%	-15.500	-15.500
CN(C(=O)CCl)C(C)(C)C#N [PCM-0102782, CN(C(=O)CCl)C(C)(C)C#N]	0%	0%	-16.514	-16.514
CC(c1ccc(F)cc1)N(C)C(=O)CCl (centres unmarked) [PCM-0102783, CC(c1ccc(F)cc1)N(C)C(=O)CCl]	0%	19%	-16.224	-16.224
O=C(CCl)Nc1nc(-c2cccs2)cs1 [PCM-0102784, O=C(CCl)Nc1nc(-c2cccs2)cs1]	7%	77%	-16.029	-16.029
Cc1ccsc1CN(C)C(=O)CCl [PCM-0102785, Cc1ccsc1CN(C)C(=O)CCl]	0%	20%	-15.849	-15.849
CC(C)(C)OC(=O)N1CCN(C(=O)CCl)CC1 [PCM-0102786, CC(C)(C)OC(=O)N1CCN(C(=O)CCl)CC1]	0%	0%	-15.946	-15.946
CN(Cc1ccccc1F)C(=O)CCl [PCM-0102787, CN(Cc1ccccc1F)C(=O)CCl]	0%	0%	-16.194	-16.194
CC1CC(C)CN(C(=O)CCl)C1 (centres unmarked) [PCM-0102789, CC1CC(C)CN(C(=O)CCl)C1]	8%	0%	-16.705	-16.705
O=C(CCl)NCc1cc(F)cc(F)c1 [PCM-0102790, O=C(CCl)NCc1cc(F)cc(F)c1]	0%	0%	-16.548	-16.548
CC(c1nc2ccccc2s1)N(C)C(=O)CCl (centres unmarked) [PCM-0102793, CC(c1nc2ccccc2s1)N(C)C(=O)CCl]	19%	0%	-15.755	-15.755
O=C(CCl)NCC1CCCc2ccccc21 (centres unmarked) [PCM-0102794, O=C(CCl)NCC1CCCc2ccccc21]	34%	0%	-16.479	-16.479
CC1CN(C(=O)CCl)CC(C)O1 (centres unmarked) [PCM-0102796, CC1CN(C(=O)CCl)CC(C)O1]	0%	0%	-15.522	-15.522
O=C(CCl)Nc1cccc(Cl)c1Cl [PCM-0102797, O=C(CCl)Nc1cccc(Cl)c1Cl]	0%	15%	-15.881	-15.881
CC(NC(=O)CCl)c1ccco1 (centres unmarked) [PCM-0102798, CC(NC(=O)CCl)c1ccco1]	19%	14%	-16.737	-16.737
